Read-outs that look alike come from different tables or passages of the source. Where only a bound is given, the exact number is not on record here.

Drawing on US9955691B2, “Macrocyclic picolinamides as fungicides” (DOW AGROSCIENCES LLC, priority 2014, dated 2018), this text covers pest or weed control for 27 compounds.

Experiment [1] has as its system Puccinia triticina. Put plainly: Fungicidal activity: Wheat Brown Rust (PUCCRT). The experiment is classed as in vivo. The following applies: for pest or weed control at 121.5 g/ha: Low Volume (121.5 g/H); for pest or weed control at 100 µg/mL: High Volume (100 ppm). In short, it runs like this: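 Wheat seedlings (Yuma, first leaf) sprayed to run-off with compound in acetone/water with Triton X-100, inoculated with Puccinia triticina before or after treatment. Held overnight in dark dew at 22° C, then greenhouse at 24° C; percent disease control from severity versus untreated plants.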

The test system of experiment [2] is Mycosphaerella graminicola; Anamorph: Septoria tritici. Put plainly: Fungicidal activity: Leaf Blotch of Wheat (SEPTTR). The following applies: Zymoseptoria tritici, wheat leaf blotch; for pest or weed control at 121.5 g/ha: Low Volume (121.5 g/H); for pest or weed control at 100 µg/mL: High Volume (100 ppm). In kind it is in vivo. In short, it runs like this: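 Compounds were dissolved in acetone, diluted with nine volumes of water containing 110 ppm Triton X-100, and sprayed to run-off on first-leaf Yuma wheat seedlings inoculated with Septoria tritici spores before or after treatment. Plants were held in a dew chamber, then a 20° C. greenhouse. Percent control was derived from disease severity relative to untreated plants.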

Where [3] appears, read: 24 h, 1 Day Protectant, read-out: PUCCRT 1 DP disease control.
Setting [4] is: 72 h, 3 Day Curative, read-out: PUCCRT 3 DC disease control.
Setting [5] is: 24 h, 1 Day Protectant, read-out: SEPTTR 1 DP disease control.
The mark [6] stands for this setting: 72 h, 3 Day Curative, read-out: SEPTTR 3 DC disease control.

As to `COc1ccnc(C(=O)N[C@H]2COC[C@H](Cc3ccc(C(F)(F)F)cc3)[C@@H](Cc3ccc(F)cc3)[C@H](C)OC2=O)c1OCOC(C)=O` [compound 78], the pest or weed control at 121.5 g/ha in experiment [1] (setting [3]), in experiment [1] (setting [4]), in experiment [2] (setting [5]) and in experiment [2] (setting [6]) was less than 70% throughout.
Consider `CCC[C@H]1COC[C@H](NC(=O)c2nccc(OC)c2OC(C)=O)C(=O)O[C@@H](C)[C@@H]1Cc1ccccc1` [compound 22], for which the pest or weed control at 121.5 g/ha in experiment [1] (setting [3]), in experiment [1] (setting [4]), in experiment [2] (setting [5]) and in experiment [2] (setting [6]) was more than 70% in each case.
For `COc1ccnc(C(=O)N[C@H]2COC[C@H](CCC(C)C)[C@@H](CCC(C)C)[C@H](C)OC2=O)c1OCOC(C)=O` [compound 8], the pest or weed control at 100 µg/mL in experiment [1] (setting [3]), in experiment [1] (setting [4]), in experiment [2] (setting [5]) and in experiment [2] (setting [6]) was more than 70% throughout.
In the case of `COc1ccnc(C(=O)N[C@H]2COC[C@H](Cc3ccccc3)[C@@H](Cc3ccc(F)cc3)[C@H](C)OC2=O)c1O` [compound 143], the pest or weed control at 100 µg/mL in experiment [1] (setting [3]) is more than 70%; in experiment [1] (setting [4]) it was less than 70%; in experiment [2] (setting [5]), more than 70%; in experiment [2] (setting [6]) it was less than 70%.
For the compound `CCC[C@H]1COC[C@H](NC(=O)c2nccc(OC)c2O)C(=O)O[C@@H](C)[C@@H]1c1ccccc1` [compound 152], the pest or weed control at 100 µg/mL in experiment [1] (setting [3]), in experiment [1] (setting [4]), in experiment [2] (setting [5]) and in experiment [2] (setting [6]) was more than 70% throughout.
For the compound `COc1ccnc(C(=O)N[C@H]2COC[C@H](Cc3ccccc3)[C@@H](CC(C)C)[C@H](C)OC2=O)c1OC(C)=O` [compound 18], the pest or weed control at 121.5 g/ha in experiment [1] (setting [3]) was more than 70%; in experiment [1] (setting [4]), less than 70%; in experiment [2] (setting [5]) it was more than 70%; in experiment [2] (setting [6]), more than 70%.
In the case of `COc1ccnc(C(=O)N[C@H]2COC[C@H](CC3CC3)[C@@H](c3ccccc3)[C@H](C)OC2=O)c1O` [compound 154], the pest or weed control at 100 µg/mL in experiment [1] (setting [3]), in experiment [1] (setting [4]), in experiment [2] (setting [5]) and in experiment [2] (setting [6]) was more than 70% in each case.
Take `COc1ccnc(C(=O)N[C@H]2COC[C@H](Cc3ccccc3)[C@@H](CCc3ccccc3)[C@H](C)OC2=O)c1OC(C)=O` [compound 29]: the pest or weed control at 121.5 g/ha in experiment [1] (setting [3]), in experiment [1] (setting [4]), in experiment [2] (setting [5]) and in experiment [2] (setting [6]) was more than 70% each time.
On to `COc1ccnc(C(=O)N[C@H]2COC[C@H](Cc3ccccc3)[C@@H](CC(C)C)[C@H](C)OC2=O)c1OCOC(C)=O` [compound 19], for which the pest or weed control at 121.5 g/ha in experiment [1] (setting [3]), in experiment [1] (setting [4]), in experiment [2] (setting [5]) and in experiment [2] (setting [6]) was more than 70% throughout.
As for `CCC[C@H]1COC[C@H](NC(=O)c2nccc(OC)c2O)C(=O)O[C@@H](C)[C@@H]1Cc1ccccc1` [compound 126], the pest or weed control at 100 µg/mL in experiment [1] (setting [3]), in experiment [1] (setting [4]), in experiment [2] (setting [5]) and in experiment [2] (setting [6]) was more than 70% throughout.
Turning to `COc1ccnc(C(=O)N[C@H]2COC[C@H](CCC(C)C)[C@@H](Cc3ccccc3)[C@H](C)OC2=O)c1O` [compound 133], the pest or weed control at 100 µg/mL in experiment [1] (setting [3]), in experiment [1] (setting [4]), in experiment [2] (setting [5]) and in experiment [2] (setting [6]) was more than 70% throughout.
`CCCC[C@@H]1[C@@H](Cc2ccccc2)COC[C@H](NC(=O)c2nccc(OC)c2OCOC(C)=O)C(=O)O[C@H]1C` [compound 14]: the pest or weed control at 100 µg/mL in experiment [1] (setting [3]), in experiment [1] (setting [4]), in experiment [2] (setting [5]) and in experiment [2] (setting [6]) was less than 70% throughout.
For the compound `COc1ccnc(C(=O)N[C@H]2COC[C@H](Cc3ccc(C(F)(F)F)cc3)[C@@H](Cc3ccc(F)cc3)[C@H](C)OC2=O)c1O` [compound 147], the pest or weed control at 100 µg/mL is more than 70% in experiment [1] (setting [3]), less than 70% in experiment [1] (setting [4]), more than 70% in experiment [2] (setting [5]) and less than 70% in experiment [2] (setting [6]).
`COc1ccnc(C(=O)N[C@H]2COC[C@H](Cc3ccccc3)[C@@H](CCc3ccccc3)[C@H](C)OC2=O)c1OCOC(C)=O` [compound 30]: the pest or weed control at 121.5 g/ha in experiment [1] (setting [3]), in experiment [1] (setting [4]), in experiment [2] (setting [5]) and in experiment [2] (setting [6]) was more than 70% each time.
For `COc1ccnc(C(=O)N[C@H]2COC[C@H](Cc3ccccc3)[C@@H](CCC(C)C)[C@H](C)OC2=O)c1OC(C)=O` [compound 84], the pest or weed control at 121.5 g/ha in experiment [1] (setting [3]), in experiment [1] (setting [4]), in experiment [2] (setting [5]) and in experiment [2] (setting [6]) was more than 70% throughout.
With `COc1ccnc(C(=O)N[C@H]2COC[C@H](Cc3ccccc3)[C@@H](Cc3ccc(F)cc3)[C@H](C)OC2=O)c1OCOC(C)=O` [compound 61], the pest or weed control at 121.5 g/ha in experiment [1] (setting [3]), in experiment [1] (setting [4]), in experiment [2] (setting [5]) and in experiment [2] (setting [6]) was more than 70% in each case.
Consider `COc1ccnc(C(=O)N[C@H]2COC[C@H](Cc3ccc(C(F)(F)F)cc3)[C@@H](Cc3ccc(F)cc3)[C@H](C)OC2=O)c1OCOC(=O)C(C)C` [compound 80], for which the pest or weed control at 121.5 g/ha is more than 70% in experiment [1] (setting [3]), less than 70% in experiment [1] (setting [4]), less than 70% in experiment [2] (setting [5]) and less than 70% in experiment [2] (setting [6]).
On to `CCC[C@H]1COC[C@H](NC(=O)c2nccc(OC)c2O)C(=O)O[C@@H](C)[C@@H]1CC(C)C` [compound 142], for which the pest or weed control at 100 µg/mL in experiment [1] (setting [3]), in experiment [1] (setting [4]), in experiment [2] (setting [5]) and in experiment [2] (setting [6]) was less than 70% each time.
On to `COc1ccnc(C(=O)N[C@H]2COC[C@H](CCCc3ccccc3)[C@@H](CC(C)C)[C@H](C)OC2=O)c1OC(C)=O` [compound 62], for which the pest or weed control at 121.5 g/ha in experiment [1] (setting [3]), in experiment [1] (setting [4]), in experiment [2] (setting [5]) and in experiment [2] (setting [6]) was more than 70% throughout.
On to `CCOCC(=O)OCOc1c(OC)ccnc1C(=O)N[C@H]1COC[C@H](Cc2ccccc2)[C@@H](CCc2ccccc2)[C@H](C)OC1=O` [compound 32], for which the pest or weed control at 121.5 g/ha in experiment [1] (setting [3]), in experiment [1] (setting [4]), in experiment [2] (setting [5]) and in experiment [2] (setting [6]) was more than 70% throughout.
As to `COc1ccnc(C(=O)N[C@H]2COC[C@H](CCCc3ccccc3)[C@@H](Cc3ccc(OC(F)(F)F)cc3)[C@H](C)OC2=O)c1OC(C)=O` [compound 81], the pest or weed control at 121.5 g/ha in experiment [1] (setting [3]), in experiment [1] (setting [4]), in experiment [2] (setting [5]) and in experiment [2] (setting [6]) was less than 70% in each case.
In the case of `CCOCC(=O)OCOc1c(OC)ccnc1C(=O)N[C@H]1COC[C@H](CCC(C)C)[C@@H](CCc2ccccc2)[C@H](C)OC1=O` [compound 36], the pest or weed control at 121.5 g/ha in experiment [1] (setting [3]) is more than 70%; in experiment [1] (setting [4]), less than 70%; in experiment [2] (setting [5]), more than 70%; in experiment [2] (setting [6]), more than 70%.
As to `COc1ccnc(C(=O)N[C@H]2COC[C@H](CCC(C)C)[C@@H](Cc3ccccc3)[C@H](C)OC2=O)c1OCOC(C)=O` [compound 44], the pest or weed control at 121.5 g/ha in experiment [1] (setting [3]) is more than 70%; in experiment [1] (setting [4]), less than 70%; in experiment [2] (setting [5]), more than 70%; in experiment [2] (setting [6]), more than 70%.
For the compound `CCOCC(=O)OCOc1c(OC)ccnc1C(=O)N[C@H]1COC[C@H](Cc2ccccc2)[C@@H](C2CCCC2)[C@H](C)OC1=O` [compound 40], the pest or weed control at 121.5 g/ha in experiment [1] (setting [3]), in experiment [1] (setting [4]), in experiment [2] (setting [5]) and in experiment [2] (setting [6]) was more than 70% each time.
In the case of `CCOCC(=O)OCOc1c(OC)ccnc1C(=O)N[C@H]1COC[C@H](Cc2ccccc2)[C@@H](Cc2ccccc2)[C@H](C)OC1=O` [compound 28], the pest or weed control at 121.5 g/ha in experiment [1] (setting [3]), in experiment [1] (setting [4]), in experiment [2] (setting [5]) and in experiment [2] (setting [6]) was more than 70% throughout.
For `CCC[C@H]1COC[C@H](NC(=O)c2nccc(OC)c2OCOC(C)=O)C(=O)O[C@@H](C)[C@@H]1CC(C)C` [compound 63], the pest or weed control at 121.5 g/ha is more than 70% in experiment [1] (setting [3]), less than 70% in experiment [1] (setting [4]), less than 70% in experiment [2] (setting [5]) and less than 70% in experiment [2] (setting [6]).
For `COc1ccnc(C(=O)N[C@H]2COC[C@@H]3CCCC[C@H]3[C@@H](C)OC2=O)c1OCOC(C)=O` [compound 5], the pest or weed control at 100 µg/mL in experiment [1] (setting [3]), in experiment [2] (setting [5]) and in experiment [2] (setting [6]) was less than 70% each time.
